Source: US7101878B1 (Agouron Pharmaceuticals, Inc., priority 1998, dated 2006)
Like-named read-outs stand apart in the source and are kept apart here.

Legend:
bovine GnRH receptor = target: T1, bovine GnRH receptor (Bos taurus, UniProt P32236); assay: Radioligand binding, 125I-GnRH-A, bovine pituitary membranes
T1 construct: membranes were prepared from bovine pituitary; from tissue; host or cells: bovine pituitary
T1 sequence (P32236 1-328): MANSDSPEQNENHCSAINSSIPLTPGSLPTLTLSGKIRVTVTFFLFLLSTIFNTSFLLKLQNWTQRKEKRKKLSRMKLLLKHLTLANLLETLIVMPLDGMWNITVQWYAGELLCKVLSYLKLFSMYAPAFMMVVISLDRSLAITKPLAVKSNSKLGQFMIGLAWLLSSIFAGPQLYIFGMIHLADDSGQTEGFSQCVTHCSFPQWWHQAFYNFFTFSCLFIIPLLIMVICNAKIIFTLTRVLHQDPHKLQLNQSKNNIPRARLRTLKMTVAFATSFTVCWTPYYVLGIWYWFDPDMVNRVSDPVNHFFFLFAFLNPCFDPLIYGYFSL
Experimental: All compounds were diluted in 1% DMSO (final assay concentration) in binding assay buffer. […] Reactions were terminated by rapid filtration onto 96-well Packard GF/C filters soaked in 0.1% polyethyleneimine. Filters were washed three times with PBS buffer, dried and counted on a Packard Topcount by liquid scintillation counting.
Assay conditions were identical for assessing compound activities at other species. […] IC50 values for control peptides and test compounds were calculated utilizing GraphPad Prism™ software.
The reaction mixture was vortexed and incubated for 1 min at room temperature. After one min, the mixture was vortexed and allowed to incubate for an additional minute. 2 ml of 0.5 M acetic acid/1% BSA was added to the reaction tube and the mixture was added to a C18 Sep-Pak cartridge. The cartridge was washed with subsequent washes of 5 ml H2O and 5 ml 0.5M acetic acid and then eluted with 5×1 ml of 60% CH3CN/40% 0.5M acetic acid. The eluate was diluted with 3× volume of HPLC buffer A (0.1% TFA in H2O) and loaded onto a C18 column. […] The radioactive fractions (750 ed/fraction) are collected into clean polypropylene tubes containing 100 μl of 10% BSA. Fractions were assessed for biological activity by radioligand binding.

human GnRH receptor = target: T2, human GnRH receptor (Homo sapiens, UniProt P30968); assay: Radioligand binding, 125I-GnRH-A displacement, membranes of HEK 293 cells with human GnRH receptor
T2 construct: expressed in transfected cells; host or cells: HEK 293 (hGnRH-R/293, from Dr. Stuart Sealfon)
T2 sequence (P30968 1-328): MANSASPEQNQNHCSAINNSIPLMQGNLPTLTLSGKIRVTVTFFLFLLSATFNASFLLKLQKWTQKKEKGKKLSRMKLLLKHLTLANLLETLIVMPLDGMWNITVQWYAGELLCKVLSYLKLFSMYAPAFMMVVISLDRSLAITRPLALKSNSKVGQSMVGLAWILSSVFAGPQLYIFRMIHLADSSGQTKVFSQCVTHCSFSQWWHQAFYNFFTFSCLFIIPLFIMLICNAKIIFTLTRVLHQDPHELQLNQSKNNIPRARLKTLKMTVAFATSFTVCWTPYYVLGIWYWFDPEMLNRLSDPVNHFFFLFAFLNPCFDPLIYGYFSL
How it was run: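 After filtration and PBS washes, bound radioactivity was counted by scintillation and IC50 derived. Identical conditions applied for non-human receptors.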

rat GnRH receptor = target: T3, rat GnRH receptor (Rattus norvegicus, UniProt P30969); assay: Radioligand binding, 125I-GnRH-A, rat pituitary membranes; parameters: membranes were prepared from rat pituitary; from tissue; host or cells: rat pituitary
T3 sequence (P30969 1-327): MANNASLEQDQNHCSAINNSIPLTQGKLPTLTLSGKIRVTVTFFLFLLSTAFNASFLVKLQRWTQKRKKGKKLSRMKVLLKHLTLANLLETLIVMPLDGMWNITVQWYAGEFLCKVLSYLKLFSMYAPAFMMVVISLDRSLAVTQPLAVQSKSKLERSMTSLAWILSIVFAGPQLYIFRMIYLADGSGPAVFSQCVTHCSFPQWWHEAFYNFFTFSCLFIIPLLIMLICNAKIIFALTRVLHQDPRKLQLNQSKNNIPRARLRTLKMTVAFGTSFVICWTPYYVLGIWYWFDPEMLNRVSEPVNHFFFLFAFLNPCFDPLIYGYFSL
How it was run: (§1)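 Bound label captured on 0.1% polyethyleneimine-treated GF/C filters, washed three times with PBS, counted. IC50 derived; identical set-up for every species.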

mouse GnRH receptor = target: T4, mouse GnRH receptor (Mus musculus, UniProt Q01776); assay: Radioligand binding, 125I-GnRH-A, 293 cells expressing mouse GnRH receptors
T4 construct: expressed in transfected cells; host or cells: 293 cells
T4 sequence (Q01776 1-327): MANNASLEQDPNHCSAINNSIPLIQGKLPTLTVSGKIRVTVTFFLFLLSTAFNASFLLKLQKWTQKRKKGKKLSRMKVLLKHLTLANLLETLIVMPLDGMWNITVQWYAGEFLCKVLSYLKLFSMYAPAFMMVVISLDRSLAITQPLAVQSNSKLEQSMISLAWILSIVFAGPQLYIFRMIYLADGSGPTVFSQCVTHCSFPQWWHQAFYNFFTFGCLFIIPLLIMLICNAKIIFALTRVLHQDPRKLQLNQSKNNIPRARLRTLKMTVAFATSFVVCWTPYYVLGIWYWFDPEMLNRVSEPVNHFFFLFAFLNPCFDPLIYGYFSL
How it was run: as §1

hGnRH receptor = target: T5, hGnRH receptor (Homo sapiens, UniProt P30968); assay: Total inositol phosphates measurement, 293 cells containing the hGnRH receptor; format: cell-based
T5 construct: expressed in transfected cells; host or cells: HEK 293 (hGnRH-R/293, from Dr. Stuart Sealfon)
T5 sequence (P30968 1-328): T2 sequence (P30968 1-328)
Experimental: To assess the activity of the compounds as agonists or antagonists, an assay measuring accumulation of total inositol phosphates was employed. 293 cells containing the hGnRH receptor were plated onto 24-well plates (approximately 200,000 cells/well) using DMEM media. […] The medium was aspirated and the cells rinsed with serum-free DMEM. The medium was aspirated and the cells were then treated with test compounds or vehicle for 30 minutes at 37° C. […] The media was replaced with ice-cold 10 mM formic acid, which stopped the reaction and also served to extract cellular lipids. Inositol phosphates were separated by ion-exchange chromatography on Dowex columns, which were washed with 2.5 mL of 10 mM myoinositol and 10 mM formic acid. The columns were then washed with 5 mL of 60 mM sodium formate and […], and total inositol phosphates were eluted with 5 mL 1M ammonium formate, 0.1 M formic acid. The column eluates were added to liquid scintillation vials containing 15 ml of scintillation cocktail and were counted by liquid scintillation counting.
This cell line was provided by Dr. Stuart Sealfon, Mount Sinai Medical School New York, N.Y. These cells were grown in DMEM supplemented with 0.2 g/L G418 100 U/ml penicillin/streptomycin and 10% FBS. Both GGH3 and hGnRH-R/293 cells were utilized for both for both total inositol phosphate measurement and for microphysiometry assessment of compound efficacy.

[1] = Metabolism rate, pmol/min/mg at 1 μM, rat female; format: in vitro ADME; conditions: 1 μM compound
[2] = Metabolism rate, pmol/min/mg at 1 μM, rat male; format: in vitro ADME; conditions: 1 μM compound
[3] = system: LH levels in castrated rats; assay: Castrated male rat model, LH suppression; format: in vivo; conditions: 10 mg/kg iv
Excerpt: Experimental Protocol: Male Sprague-Dawley (225-250 g) rats were castrated and allowed 10 days postoperative recovery. Ten days post castration animals were instrumented with indwelling femoral venous and arterial catheters to facilitate remote infusions and blood sampling. On the day of the experiment, animals were allowed to acclimate to the procedure room while residing in their home cage. Basal blood samples were drawn from all animals. Following basal sampling, either vehicle (10% DMSO, 10% cremophor/saline), Antide (1.0 μg) or compound 11 (10 mg/kg) was administered intravenously. Blood samples were drawn 10, 60, 90, 120, 180, 240 minutes after injections. Blood was centrifuged, serum collected and stored in −70° freezer until assayed. Serum samples were analyzed using DSL-4600 ACTIVE LH coated-tube immunoradiometric assay kit from Diagnostic Systems Laboratories, Inc.
Surgical removal of the gonads removes circulating testosterone and eliminates the negative feedback of testosterone on the hypothalamus. […] This model seems suitable for evaluating small molecule GnRH antagonists.
Male Sprague-Dawley ([…]) rats were castrated via the scrotal approach under halothane anesthesia. Animals were allowed 14 days post operative recovery prior to study. Thirteen days following castration, animals were anesthetized with halothane and instrumented with indwelling jugular vein cannula. Details of the cannulation procedure have been described previously {Harms and Ojeda, 1974)}. On study day, animals were allowed to acclimate to the procedure room while residing in their home cage. Basal blood samples were drawn from all animals. Immediately following basal sampling, vehicle or test compounds were administered by various routes. The routes of administration employed were intravenous (iv), intramuscular (im), intraperitoneal (ip), subcutaneous (sc) and oral (po). Blood samples were drawn into heparin containing tubes at multiple time points post treatment. Blood was centrifuged immediately, plasma collected and stored in −20° freezer until assayed. Plasma samples were analyzed using DSL-4600 ACTIVE LH coated-tube immunoradiometric assay kit from Diagnostic Systems Laboratories, Inc.
Formulation #1 (denoted with superscript 1): 10% DMSO, 10% Cremophor EL and 80% physiological saline.
Formulation #2 (denoted with superscript 2): 10% Cremophor EL and 90% physiological saline.

[4] = Metabolism rate, pmol/min/mg at 1 μM, human; format: in vitro ADME; conditions: 1 μM compound
[5] = Pharmacokinetic studies / bioavailability in rats; format: in vivo, rat; conditions: rat female; for Cmax / Tmax / half-life: female, rat, plasma; for Cmax / Tmax: po, 10 mg/kg, p.o. 10 mg/kg; for Cmax / Tmax / Fp.o.: 5 mg/ml solution in 10% DMSO 10% cremophor 80% saline

Structure (SMILES) | IC50 (bovine GnRH receptor; means ± SE of at least three experiments performed in duplicate, read-out: Bovine IC50) [nM] | IC50 (human GnRH receptor; means ± SE of at least three experiments performed in duplicate, read-out: Human IC50) [nM] | IC50 (human GnRH receptor; read-out: hGnRH IC50) [nM] | IC50 (human GnRH receptor; second value marked * (mostly in parentheses), asterisk not explained, read-out: hGnRH IC50, value marked *) [nM] | IC50 (rat GnRH receptor; means ± SE of at least three experiments performed in duplicate, read-out: Rat IC50) [nM] | IC50 (rat GnRH receptor; read-out: rGnRH IC50) [nM] | IC50 (mouse GnRH receptor; means ± SE of at least three experiments performed in duplicate, read-out: Mouse IC50) [nM] | IC50 (mouse GnRH receptor; read-out: mGnRH IC50) [nM] | Kb (hGnRH receptor) [nM] | IC50 (bovine GnRH receptor; read-out: bGnRH IC50) [nM] | GnRH functional (hGnRH receptor; no species or readout annotated) | Rat female pmol/min/mg 1 μM [1] [pmol/min/mg] | Rat male pmol/min/mg 1 μM [2] [pmol/min/mg] | % Max LH Suppression [3] [%] | time of % Max LH Suppression [3] [h] | Human pmol/min/mg 1 μM [4] [pmol/min/mg] | Cmax [5] [nM] | Tmax [5] [h] | half-life [5] [h] | Fp.o. [5]
Cc1cc2c(cc1Cc1ccc(C(=O)NCC3CCC(CNC(=N)N)CC3)o1)C(C)(C)CCC2(C)C (centres unmarked) [Compound 9] | 3800 ± 220 | 220 ± 33 | 220 | 40 | 680 ± 120 | 680 | 2300 ± 460 | 2300 | 30 | – | – | – | – | – | – | – | – | – | – | –
CCOC(=O)[C@H]1CC[C@H](CNC(=O)c2ccc(Cc3cc4c(cc3C)C(C)(C)CCC4(C)C)o2)CC1 [Compound 31] | – | – | 140 | – | – | 2800 | – | 1880 | – | 8900 | Antag- onist | – | – | – | – | – | – | – | – | –
COc1cccc(OC)c1NC(=O)c1ccc(Cc2cc(C(C)(C)C)ccc2C)o1 [Compound 206] | – | – | 52 | – | – | 23 | – | 83 | – | – | – | 330 | 1794 | 51 | 1 | 689 | – | – | – | –
COc1cccc(OC)c1NC(=O)c1ccc(Cc2c(C)c(C)cc(C)c2C)o1 [Compound 225] | – | – | 174 | – | – | 1510 | – | 850 | – | – | – | 330 | 2180 | – | – | 450 | 340 | 1 | 1.1 | 24% (10 mg/kg)^10
COc1cccc(OC)c1NC(=O)c1ccc(Cc2c(C)c(C)c(Br)c(C)c2C)o1 [Compound 226] | – | – | 240 | – | – | 2130 | – | 720 | – | – | – | 173 | 990 | – | – | 369 | 420 | 1 to 5 | 4.6 | 34% (10 mg/kg)^10
COc1cc(NS(C)(=O)=O)c(NC(=O)c2ccc(Cc3cc4c(cc3C)C(C)(C)CCC4(C)C)o2)c(OC)c1 [Compound 228] | – | – | 27 | – | – | 57 | – | 14 | – | – | – | 227 | 320 | – | – | 641 | 70 | 0.5 | 2.4 | 2% (10 mg/kg)^10
COc1cc(C)c(Cl)c(C)c1Cc1ccc(C(=O)Nc2c(OC)cccc2OC)o1 [Compound 233] | – | – | 60 | – | – | 51 | – | 68 | – | – | – | 338 | 2988 | – | – | 773 | 340 | 1 | 1.4 | 34% (10 mg/kg)^10
